Test results taken from publication PMC9463526 (Journal of Pharmaceutical Analysis, 2022).
Like-named read-outs stand apart in the source and are kept apart here.

How the values were obtained:
[1] = Equilibrium dialysis, fraction unbound in plasma; assay type: in vitro ADME, human; conditions: pH 7.4, 16 h equilibrium dialysis
Description: (§1) Equilibrium dialysis was employed to measure the fraction unbound of analytes in plasma, brain, and brain tumor tissue homogenates using 96-well DispoEquilibrium Dialyzer plates with a 10 kDa cut-off regenerated cellulose membrane. Dialysis was performed using 180 μL of human plasma or tissue homogenate against an equal volume of PBS (pH 7.4) in a dual-plate rotator (Harvard Apparatus, Holliston, MA, USA). Equilibrium time was initially optimized by analyzing samples after 2, 4, 6, 8, 16, and 24 h of dialysis at concentrations of 20 and 200 nM in human plasma and brain homogenate. The dialysates were collected and processed as described in Sections 2.3.2 and 2.3.3. The recovery of analytes was calculated as the ratio of analyte concentration after dialysis (sum of concentrations found in PBS and matrix fractions) to the total concentration to ensure the reliability and reproducibility of the assay. The experiments were repeated at least three times, and each sample in triplicate and average fraction unbound values were determined.
(§2) The fraction unbound in plasma (fu, plasma) and tissue homogenate (fu, hom) was evaluated as the analyte concentration ratio of post-dialysis PBS (cu) to post-dialysis plasma (cp, Eq. (1)) or homogenate (chom, Eq. (2)).(1) fu,plasma =cu/cp (2) fu,hom =cu/chom
(§3) Unbound drug levels in the actual plasma and brain tumor tissue were measured using dialysis for 16 h to reach equilibrium. The mean of fraction unbound values determined in five patient samples was calculated.

[2] = rat; cited from earlier work
[3] = Equilibrium dialysis, fraction unbound in brain homogenate; assay type: in vitro ADME, human; conditions: pH 7.4; human brain homogenate spiked at 20 and 200 nM; 16 h equilibrium dialysis; read-out: Fraction unbound (fu), Brain
Description: as §1, §2
(§4) The fraction unbound in the actual tissue (fu, tissue) was obtained by incorporating the unbound fraction in the tissue homogenate (fu, hom) and the dilution factor (Df) into Eq. (3).(3) fu,tissue = fu,hom/[Df - (Df - 1)fu,hom]

[4] = Equilibrium dialysis, fraction unbound in patient brain tumor tissue; assay type: in vitro ADME; conditions: human, five patients, 16 h equilibrium dialysis
Description: as §1, §2, §4, §3
The validated bioanalytical method was employed to investigate analytes pharmacokinetics in the plasma, brain tumor, and CSF in GBM patients (ClinicalTrials.gov identifier: NCT04391595). The protocol was reviewed and approved by the Institutional Review Board of the Barrow Neurological Institute, St. Joseph's Hospital and Medical Center (Phoenix, AZ, USA). All patients enrolled in the trial provided written informed consent. […] Blood, CSF, and GBM tissue (including gadolinium-contrast enhancing and non-enhancing regions) samples were obtained intra-operatively from each patient on the […] on the planned operation day. Blood was centrifuged at 4 °C and 3,000 r/min for 10 min; plasma was subsequently collected. Brain tumors were resected 7–9 h after the last dose was administered. Once resected, the tissue samples were rinsed with PBS, paper dried, and freshly frozen in liquid nitrogen. The samples were then stored at −80 °C in a freezer for later analysis.

[5] = parameters: method as in investigational brochures; conditions: ref investigational brochures; cited from earlier work
[6] = mouse; cited from earlier work
[7] = cited from earlier work
[8] = Analyte stability in brain homogenate; assay type: physicochemical, human; conditions: for Freeze-thaw stability, Accuracy / Freeze-thaw stability, Difference: 3 cycles; for Freeze-thaw stability, Difference / Benchtop stability, Difference / Processed sample stability, Difference / Autosampler stability (5 °C), Difference / Long-term stability (−20 °C), Difference: vs freshly processed QC; for Benchtop stability, Accuracy / Benchtop stability, Difference: 6 h; for Processed sample stability, Accuracy / Processed sample stability, Difference: 22 h; for Autosampler stability (5 °C), Accuracy / Autosampler stability (5 °C), Difference: 96 h; for Long-term stability (−20 °C), Difference: 39 days
Description: The stability of the analytes was studied under various storage and processing conditions. […] Short- and long-term stability studies of all analytes were conducted in human blank plasma and brain homogenate under several storage conditions. Analyte stability in biological matrices was analyzed using freshly prepared calibration standards and QC samples. The percentage difference between the stability and freshly processed QC was also assessed. Re-injection reproducibility was evaluated within the sample stability period in the autosampler. Analytes were considered stable if the accuracy at each level was ±15.0% of the nominal value. Additionally, the difference from corresponding comparison QC samples must be within ±15.0%.

[9] = cited from earlier work; remark: listed apart in the source

fraction unbound at 16 h ([1]; human, plasma of five GBM patients, read-out: Fraction unbound (fu), Plasma (patients)): 0.026
fraction unbound at 16 h ([1]; pooled human plasma spiked at 20 and 200 nM, read-out: Fraction unbound (fu), Plasma (pooled)): 0.026
fraction unbound at 16 h [3]: 0.013
fraction unbound at 16 h ([4]; pH 7.4, gadolinium contrast enhancing GBM region, read-out: Fraction unbound (fu), GBM (E)): 0.014
fraction unbound at 16 h ([4]; pH 7.4, gadolinium contrast non-enhancing GBM region, read-out: Fraction unbound (fu), GBM (NE)): 0.011
Freeze-thaw stability, Accuracy ([8]; HQC 400.0 nM): 106.8%
Freeze-thaw stability, Difference ([8]; HQC 400.0 nM): −3.2%
Freeze-thaw stability, Accuracy ([8]; LQC 0.6 nM): 104.4%
Freeze-thaw stability, Difference ([8]; LQC 0.6 nM): −5.7%
Benchtop stability, Accuracy ([8]; HQC 400.0 nM): 97.3%
Benchtop stability, Difference ([8]; HQC 400.0 nM): −3.7%
Benchtop stability, Accuracy ([8]; LQC 0.6 nM): 108.3%
Benchtop stability, Difference ([8]; LQC 0.6 nM): 6.7%
Processed sample stability, Accuracy ([8]; HQC 400.0 nM): 99.6%
Processed sample stability, Difference ([8]; HQC 400.0 nM): −1.4%
Processed sample stability, Accuracy ([8]; LQC 0.6 nM): 104.5%
Processed sample stability, Difference ([8]; LQC 0.6 nM): 3.0%
Autosampler stability (5 °C), Accuracy ([8]; HQC 400.0 nM): 102.8%
Autosampler stability (5 °C), Difference ([8]; HQC 400.0 nM): 3.3%
Autosampler stability (5 °C), Accuracy ([8]; LQC 0.6 nM): 108.3%
Autosampler stability (5 °C), Difference ([8]; LQC 0.6 nM): 13.8%
Long-term stability (−20 °C), Difference ([8]; HQC 400.0 nM): −1.5%
Long-term stability (−20 °C), Difference ([8]; LQC 0.6 nM): −6.9%
Compound: CCN1CCN(Cc2ccc(Nc3ncc(F)c(-c4cc(F)c5nc(C)n(C(C)C)c5c4)n3)nc2)CC1 [Abemaciclib]
fu, brain [2]: 0.0043
pKa (strongest basic) [5]: 7.95
fu, brain [6]: 0.0079
Distribution (LogD, pH7.4), experimentally measured (value in parenthesis) ([7]; pH 7.4): 2.70
Lipophilicity, experimentally measured (value in parenthesis) ([7]; ref [12]): 3.36
fu, plasma (previously published) [9]: 0.027
